One experiment deals with HT1080 cells. The experiment can be described thus: Cellular assay, inhibition of 2-HG production in HT1080 cells. Type of experiment: cell-based. The conditions noted are these: Homo sapiens, HT-1080, 48 h. Here is the method: Cells (HT1080 or U87MG) are grown in T125 flasks in DMEM containing 10% FBS, 1× penicillin/streptomycin and 500 ug/mL G418 (present in U87MG cells only). They are harvested by trypsin and seeded into 96 well white bottom plates at a density of 5000 cell/well in 100 ul/well in DMEM with 10% FBS. […] Cells are incubated overnight at 37° C. in 5% CO2. The next day test compounds are made up at 2× the final concentration and 100 ul are added to each cell well. The final concentration of DMSO is 0.2% and the DMSO control wells are plated in row G. The plates are then placed in the incubator for 48 hours. […] The cell plate is placed back in the incubator for another 24 hours. At 72 hours post compound addition, 10 mL/plate of Promega Cell Titer Glo reagent is thawed and mixed. The cell plate is removed from the incubator and allowed to equilibrate to room temperature. Then 100 ul of Promega Cell Titer Glo reagent is added to each well of media. The cell plate is then placed on an orbital shaker for 10 minutes and then allowed to sit at room temperature for 20 minutes. The plate is then read for luminescence with an integration time of 500 ms.

The test system of the next experiment is U87MG cells. The experiment can be described thus: Cellular assay, inhibition of 2-HG production in U87MG cells. Type of experiment: cell-based. The method in brief: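 HT1080 or U87MG cells (U87MG kept with 500 ug/mL G418) seeded at 5000 cells/well and treated with compound at 0.2% final DMSO. Incubated 48 h at 37 °C. 2-HG inhibition determined by LC-MS. Viability read by CellTiter-Glo luminescence at 72 h post-dose.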

The target of a further experiment is IDH1 R132H (Homo sapiens (Human), UniProt O75874, R132H). In words: In vitro NADPH depletion assay for IDH1m R132H inhibitors. The settings on record: IDH1 R132H enzyme, read-out: IDH R132H IC50. Type of experiment: biochemical. As for the experimental part: (§1) A test compound is prepared as 10 mM stock in DMSO and diluted to 50× final concentration in DMSO, for a 50 μl reaction mixture. IDH enzyme activity converting alpha-ketoglutarate to 2-hydroxyglutaric acid is measured using a NADPH depletion assay. In the assay the remaining cofactor is measured at the end of the reaction with the addition of a catalytic excess of diaphorase and resazurin, to generate a fluorescent signal in proportion to the amount of NADPH remaining. […] The reaction is started with the addition of 10 μl of Substrate Mix ([…], 5 mM alpha-ketoglutarate, in Assay Buffer) and the mixture is incubated for 90 minutes at room temperature.
IDH1 R132H, sequence (O75874 whole entry R132H): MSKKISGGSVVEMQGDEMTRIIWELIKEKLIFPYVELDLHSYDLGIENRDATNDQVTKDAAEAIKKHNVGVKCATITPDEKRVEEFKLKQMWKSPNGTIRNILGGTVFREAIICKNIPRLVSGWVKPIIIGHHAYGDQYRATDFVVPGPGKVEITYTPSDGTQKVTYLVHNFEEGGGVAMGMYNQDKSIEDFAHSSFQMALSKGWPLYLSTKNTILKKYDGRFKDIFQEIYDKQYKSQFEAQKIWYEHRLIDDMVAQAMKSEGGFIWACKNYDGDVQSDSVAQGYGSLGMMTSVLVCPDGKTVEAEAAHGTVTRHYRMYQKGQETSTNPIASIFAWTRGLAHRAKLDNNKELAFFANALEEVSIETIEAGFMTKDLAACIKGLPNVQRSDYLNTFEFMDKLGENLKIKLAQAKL

The target in the next experiment is IDH1 R132C (Homo sapiens (Human), UniProt O75874, R132C). In words: In vitro NADPH depletion assay for IDH1m R132C inhibitors. Type of experiment: biochemical. The settings on record: IDH1 R132C enzyme, read-out: IDH R132C IC50. As for the experimental part: as §1
IDH1 R132C, sequence (O75874 whole entry R132C): as the sequence (O75874 whole entry R132H) above, with H132C counted along it
The concentration of NADPH and alpha-ketoglutarate in the Substrate Buffer is 20 μM and 1 mM, respectively.

Setting [1] is: inhibition of 2-HG production, U87MG cells, 48 hours.

As to `N#Cc1ccnc(N2C(=O)CC[C@H]2C(=O)N(c2cccc(F)c2)[C@H](C(=O)NC2CC(F)(F)C2)c2c(Cl)cccc2Cl)c1` (single isomer, unassigned) [Compound 63], the IC50 is under 100 nM with HT1080 cells and under 100 nM in the experiment on U87MG cells (Homo sapiens, U-87 MG, 48 h).

Consider `N#Cc1ccnc(N2C(=O)OCC[C@H]2C(=O)N(c2cncc(F)c2)C(C(=O)NC2CC(F)(F)C2)c2ccccc2)c1` (stereo in doubt) [Compound 301, (S)-3-(4-cyanopyridin-2-yl)-N—((R)-2-((3,3-difluorocyclobutyl)amino)-2-oxo-1-phenylethyl)-N-(5-fluoropyridin-3-yl)-2-oxo-1,3-oxazinane-4-carboxamide], for which the IC50 with HT1080 cells and on IDH1 R132H was under 100 nM in each case.

For the molecule `N#Cc1ccnc(N2C(=O)OCC[C@H]2C(=O)N(c2cncc(F)c2)C(C(=O)NC2CC(F)(F)C2)c2ccccc2F)c1` (stereo in doubt) [Compound 302, (S)-3-(4-cyanopyridin-2-yl)-N—((R)-2-(3,3-difluorocyclobutylamino)-1-(2-fluorophenyl)-2-oxoethyl)-N-(5-fluoropyridin-3-yl)-2-oxo-1,3-oxazinane-4-carboxamide], the IC50 in the experiment with HT1080 cells and on IDH1 R132H was under 100 nM throughout.

Turning to `O=C(NC1CC(F)(F)C1)[C@H](c1ccccc1Cl)N(C(=O)[C@@H]1CCC(=O)N1c1ccccn1)c1cccc(F)c1` [Compound 5], the IC50 at IDH1 R132C is under 100 nM; at IDH1 R132H, under 100 nM; in the experiment on U87MG cells (Homo sapiens, U-87 MG, 48 h), 100 to 500 nM.

On to `Cc1cccnc1N1C(=O)CC[C@H]1C(=O)N(c1cccc(F)c1)[C@H](C(=O)NC1CC(F)(F)C1)c1ccccc1Cl` [Compound 15], for which the concentration for half-maximal inhibition (IC50) in the experiment with HT1080 cells lay in the range of 100 to 500 nM; with U87MG cells (Homo sapiens, U-87 MG, 48 h), 100 to 500 nM.

Regarding `O=C(NC1CC(F)(F)C1)[C@H](c1ccccc1Cl)N(C(=O)[C@@H]1CCC(=O)N1c1nccc2ccccc12)c1cccc(F)c1` [Compound 16], the 50% inhibitory concentration (IC50) in the experiment on HT1080 cells fell in the range of 100 to 500 nM; in the experiment on U87MG cells (Homo sapiens, U-87 MG, 48 h), 500 to 1000 nM.

With `COc1cccnc1N1C(=O)CC[C@H]1C(=O)N(c1cccc(F)c1)[C@H](C(=O)NC1CC(F)(F)C1)c1ccccc1Cl` [Compound 17], the IC50 in the experiment with HT1080 cells fell in the range of 500 to 1000 nM; in the experiment on U87MG cells (Homo sapiens, U-87 MG, 48 h), 1000 to 2000 nM.

As for `O=C(NC1CC(F)(F)C1)[C@H](c1ccccc1Cl)N(C(=O)[C@@H]1CCC(=O)N1c1ccncn1)c1cccc(F)c1` [Compound 22], the IC50 on IDH1 R132C and at IDH1 R132H was 100 to 500 nM in each case.

The molecule `Cc1cccc(N2C(=O)CC[C@H]2C(=O)N(c2cccc(F)c2)[C@H](C(=O)NC2CC(F)(F)C2)c2ccccc2Cl)n1` [Compound 28] gave an IC50 in the experiment on HT1080 cells of under 100 nM.

Consider `O=C(NC1CC(F)(F)C1)[C@H](c1ccccc1Cl)N(C(=O)[C@@H]1CCC(=O)N1c1cc(C(F)(F)F)ccn1)c1cccc(F)c1` [Compound 40], for which the IC50 was 100 to 500 nM in the experiment with HT1080 cells and 100 to 500 nM with U87MG cells (Homo sapiens, U-87 MG, 48 h).

As to `O=C(NC1CC(F)(F)C1)[C@H](c1ccccc1Cl)N(C(=O)[C@@H]1COCC(=O)N1c1ncccn1)c1cccc(F)c1` [Compound 45], the 50% inhibitory concentration (IC50) fell in the range of 100 to 500 nM with HT1080 cells and 100 to 500 nM in the experiment with U87MG cells (Homo sapiens, U-87 MG, 48 h).

On to `O=C(NC1CC(F)(F)C1)[C@H](c1ccccc1Cl)N(C(=O)[C@@H]1CCC(=O)N1c1ccc(Cl)cn1)c1cccc(F)c1` [Compound 48], for which the IC50 with HT1080 cells lay in the range of 100 to 500 nM; in the experiment on U87MG cells (Homo sapiens, U-87 MG, 48 h), 100 to 500 nM.

Regarding `O=C(NC1CC(F)C1)[C@H](c1ccccc1Cl)N(C(=O)[C@@H]1CCC(=O)N1c1ncccn1)c1cccc(F)c1` (stereo partly drawn) [Compound 49], the IC50 with HT1080 cells is 100 to 500 nM; with U87MG cells (Homo sapiens, U-87 MG, 48 h), 100 to 500 nM.

Take `N#Cc1cccc(N2C(=O)OC[C@H]2C(=O)N(c2cccc3cn[nH]c23)[C@H](C(=O)NC2CCC(F)(F)CC2)c2ccccc2Cl)c1` [Compound 142, (S)—N—((S)-1-(2-Chlorophenyl)-2-(4,4-difluorocyclohexylamino)-2-oxoethyl)-3-(3-cyanophenyl)-N-(1H-indazol-7-yl)-2-oxooxazolidine-4-carboxamide]: the IC50 on IDH1 R132C, on IDH1 R132H and in the experiment on U87MG cells (setting [1]) was under 100 nM in each case.

`CC(C)(C)c1cccc(N(C(=O)[C@@H]2CCC(=O)N2c2nccc(C#N)n2)[C@H](C(=O)NC2CC(F)(F)C2)c2ccccc2Cl)c1` [Compound 165, (S)—N-(3-(tert-Butyl)phenyl)-N—((S)-1-(2-chlorophenyl)-2-((3,3-difluorocyclobutyl)amino)-2-oxoethyl)-1-(4-cyanopyrimidin-2-yl)-5-oxopyrrolidine-2-carboxamide]: the IC50 on IDH1 R132H is under 100 nM; with U87MG cells (Homo sapiens, U-87 MG, 48 h), under 100 nM.

For `N#Cc1cccc(N(C(=O)[C@@H]2CCC(=O)N2c2nccc(C#N)n2)[C@H](C(=O)NC2CCC(F)(F)CC2)c2ccccc2Cl)c1` [Compound 178, (S)—N—((S)-1-(2-Chlorophenyl)-2-((4,4-difluorocyclohexyl)amino)-2-oxoethyl)-N-(3-cyanophenyl)-1-(4-cyanopyrimidin-2-yl)-5-oxopyrrolidine-2-carboxamide], the IC50 with HT1080 cells was 100 to 500 nM; in the experiment on U87MG cells (Homo sapiens, U-87 MG, 48 h) it was under 100 nM.

Turning to `N#Cc1ccnc(N2C(=O)CC[C@H]2C(=O)N(c2cc(F)cc(F)c2)[C@H](C(=O)NC2CC(F)(F)C2)c2ccccc2F)c1` [Compound 208, (S)-1-(4-Cyanopyridin-2-yl)-N—((S)-2-(3,3-difluorocyclobutylamino)-1-(2-fluorphenyl)-2-oxoethyl)-N-(3,5-difluorophenyl)-5-oxopyrrolidine-2-carboxamide], the 50% inhibitory concentration (IC50) on IDH1 R132C is under 100 nM; at IDH1 R132H it was under 100 nM; in the experiment with U87MG cells (Homo sapiens, U-87 MG, 48 h), under 100 nM.

As for “(2S)—N-(1-(2-Chlorophenyl)-2-((3,3-difluorocyclobutyl)amino)-2-oxoethyl)-1-(4-cyanopyridin-2-yl)-N-(3-fluoro-5-(methylsulfonyl)phenyl)-5-oxopyrrolidine-2-carboxamide [Compound 110]”, the IC50 at IDH1 R132C, on IDH1 R132H and in the experiment with U87MG cells (setting [1]) was under 100 nM in each case.

As for “(2S)—N-(1-(2-Chlorophenyl)-2-((4,4-difluorocyclohexyl)amino)-2-oxoethyl)-1-(4-cyanopyridin-2-yl)-N-(3-fluoro-5-(methylsulfonyl)phenyl)-5-oxopyrrolidine-2-carboxamide [Compound 105]”, the IC50 on IDH1 R132C, at IDH1 R132H and in the experiment with U87MG cells (setting [1]) was under 100 nM throughout.

Regarding “(S)-tert-butyl 3-(((S)-1-(2-chlorophenyl)-2-((3,3-difluorocyclobutyl) amino)-2-oxoethyl)(3,5-difluorophenyl)carbamoyl)-5-oxopiperazine-1-carboxylate [Compound 97]”, the IC50 at IDH1 R132C, at IDH1 R132H and in the experiment on U87MG cells (setting [1]) was under 100 nM each time.

Consider “(S)—N—((S)-1-(2-Chlorophenyl)-2-(3,3-difluorocyclobutylamino)-2-oxoethyl)-1-(3-cyano-phenyl)-N-(1H-indazol-7-yl)-5-oxopyrrolidine-2-carboxamide [Compound 186]”, for which the IC50 at IDH1 R132C, at IDH1 R132H and in the experiment on U87MG cells (setting [1]) was under 100 nM throughout.

As for “(S)—N—((S)-1-(2-Chlorophenyl)-2-(3,3-difluorocyclobutylamino)-2-oxoethyl)-N-(3-cyano-5-fluorophenyl)-3-(3-cyanophenyl)-2-oxooxazolidine-4-carboxamide [Compound 134]”, the IC50 on IDH1 R132C, at IDH1 R132H and in the experiment on U87MG cells (setting [1]) was under 100 nM throughout.

Consider “(S)—N—((S)-1-(2-Chlorophenyl)-2-((3,3-difluorocyclobutyl)amino)-2-oxoethyl)-1-(4-cyanopyridin-2-yl)-N-(1H-indazol-6-yl)-5-oxopyrrolidine-2-carboxamide [Compound 205]”, for which the IC50 at IDH1 R132C, at IDH1 R132H and in the experiment with U87MG cells (setting [1]) was under 100 nM throughout.

As for “(S)—N—((S)-1-(2-Chlorophenyl)-2-((3,3-difluorocyclobutyl)amino)-2-oxoethyl)-1-(4-cyanopyrimidin-2-yl)-N-(3-fluoro-5-(methylsulfonyl)phenyl)-5-oxopyrrolidine-2-carboxamide [Compound 109]”, the IC50 is under 100 nM on IDH1 R132C, under 100 nM at IDH1 R132H and 100 to 500 nM with U87MG cells (setting [1]).

For “(S)—N—((S)-1-(2-Chlorophenyl)-2-((4,4-difluorocyclohexyl)amino)-2-oxoethyl)-3-(4-cyano-pyridin-2-yl)-N-(3-fluorophenyl)-2-oxooxazolidine-4-carboxamide [Compound 78]”, the IC50 at IDH1 R132C, on IDH1 R132H and in the experiment with U87MG cells (setting [1]) was under 100 nM in each case.

The term IC50 denotes the concentration that inhibits the measured activity by half.

Values taken from patent US10689414B2 (Agios Pharmaceuticals, Inc., priority 2013, dated 2020).
